{"source": "patent US20070253995A1", "about": "“Drug Delivery Methods and Devices for Treating Stress Urinary Incontinence” (Medtronic, Inc., priority 2006, published 2007)", "origin": "cited, not measured here", "test_system": "women with stress urinary incontinence", "conditions": "oral formulation"}
{"compound": "CNCC[C@H](Oc1cccc2ccccc12)c1cccs1", "note": "[duloxetine]", "values": [{"measurement": "time for side effects to disappear after therapy initiation", "value": "1 to 4", "unit": "weeks"}, {"measurement": "efficacy in treating stress urinary incontinence", "setting": "Phase III clinical trial, women", "value": "effective"}, {"measurement": "side effects (mostly centrally mediated: nausea, headache, insomnia, dry mouth, dizziness, fatigue)", "setting": "some patients", "value": "significant side effects in some patients"}]}
